Test results: patent US20240109903A1, “SUBSTITUTED HETEROCYCLES FOR TREATING CANCER” (Northwestern University, priority 2022, published 2024)

How the values were obtained:
Assay type in all cases: cell-based
[1] = test system: SNB-19; assay: NCI 60 five-dose screen SNB-19; conditions: Homo sapiens, five-dose; for CC50: read-out: LC50 (the source's name) (converted)
[2] = test system: HCC-2998; assay: NCI 60 five-dose screen HCC-2998; conditions: Homo sapiens, five-dose; for CC50: read-out: LC50 (the source's name) (converted)
[3] = test system: SNB-75; assay: NCI 60 five-dose screen SNB-75; conditions: Homo sapiens, five-dose; for CC50: read-out: LC50 (the source's name) (converted)
[4] = test system: SK-OV-3; assay: NCI 60 five-dose screen SK-OV-3; conditions: Homo sapiens, five-dose; for CC50: read-out: LC50 (the source's name) (converted)
[5] = test system: NCI-H460; assay: NCI 60 five-dose screen NCI-H460; conditions: Homo sapiens, five-dose; for CC50: read-out: LC50 (the source's name) (converted)
[6] = test system: HCT-15; assay: NCI 60 five-dose screen HCT-15; conditions: Homo sapiens, five-dose; for CC50: read-out: LC50 (the source's name) (converted)
[7] = test system: CAKI-1; assay: NCI 60 five-dose screen CAKI-1; conditions: Homo sapiens, five-dose; for CC50: read-out: LC50 (the source's name) (converted)
[8] = test system: SF-539; assay: NCI 60 five-dose screen SF-539; conditions: Homo sapiens, five-dose; for CC50: read-out: LC50 (the source's name) (converted)
[9] = test system: UACC-257; assay: NCI 60 five-dose screen UACC-257; conditions: Homo sapiens, five-dose; for CC50: read-out: LC50 (the source's name) (converted)
[10] = test system: HT29; assay: NCI 60 five-dose screen HT29; conditions: Homo sapiens, HT-29, five-dose; for CC50: read-out: LC50 (the source's name) (converted)
[11] = test system: UO-31; assay: NCI 60 five-dose screen UO-31; conditions: Homo sapiens, five-dose; for CC50: read-out: LC50 (the source's name) (converted)
[12] = test system: NCI/ADR-RES; assay: NCI 60 five-dose screen NCI/ADR-RES; conditions: Homo sapiens, five-dose; for CC50: read-out: LC50 (the source's name) (converted)
[13] = test system: SF-268; assay: NCI 60 five-dose screen SF-268; conditions: Homo sapiens, five-dose; for CC50: read-out: LC50 (the source's name) (converted)
[14] = test system: HOP-62; assay: NCI 60 five-dose screen HOP-62; conditions: Homo sapiens, five-dose; for CC50: read-out: LC50 (the source's name) (converted)

SMILES: FC(F)(F)c1cc2c(Cl)ncnc2n1CCC1CCOCC1 [NUCC-0226674]
- GI50 [1]: 5.25 µM
- IC50 [1]: 12.3 µM
- IC (TGI) [1]: 18.2 µM
- CC50 [1]: 43.7 µM
- GI50 [2]: 1.62 µM
- IC50 [2]: 2.95 µM
- IC (TGI) [2]: 3.02 µM
- CC50 [2]: 5.62 µM
- GI50 [3]: 3.09 µM
- IC50 [3]: 15.5 µM
- IC (TGI) [3]: 15.1 µM
- CC50 [3]: 39.8 µM
- GI50 [4]: 17.4 µM
- IC50 [4]: 33.1 µM
- IC (TGI) [4]: 33.1 µM
- CC50 [4]: 64.6 µM
- GI50 [5]: 2.4 µM
- IC50 [5]: 3.55 µM
- IC (TGI) [5]: 5.62 µM
- CC50 [5]: 22.4 µM
- GI50 [6]: 2.95 µM
- IC50 [6]: 3.8 µM
- IC (TGI) [6]: 11 µM
- CC50 [6]: 41.7 µM
- GI50 [7]: 14.5 µM
- IC50 [7]: 26.9 µM
- IC (TGI) [7]: 30.2 µM
- CC50 [7]: 63.1 µM
- GI50 [8]: 13.8 µM
- IC50 [8]: 24.5 µM
- IC (TGI) [8]: 27.5 µM
- CC50 [8]: 56.2 µM
- GI50 [9]: 3.55 µM
- IC50 [9]: 9.33 µM
- IC (TGI) [9]: 15.5 µM
- CC50 [9]: 52.5 µM
- GI50 [10]: 13.8 µM
- IC50 [10]: 21.4 µM
- IC (TGI) [10]: 44.7 µM
- CC50 [10]: ≥ 100 µM
- GI50 [11]: 1.78 µM
- IC50 [11]: 3.39 µM
- IC (TGI) [11]: 3.8 µM
- CC50 [11]: 7.94 µM
- GI50 [12]: 17 µM
- IC50 [12]: 30.9 µM
- IC (TGI) [12]: 35.5 µM
- CC50 [12]: 72.4 µM
- GI50 [13]: 2.45 µM
- IC50 [13]: 4.57 µM
- IC (TGI) [13]: 7.24 µM
- CC50 [13]: 44.7 µM
- GI50 [14]: 17 µM
- IC50 [14]: 33.1 µM
- IC (TGI) [14]: 35.5 µM
- CC50 [14]: 72.4 µM

SMILES: FC(F)(F)c1cc2c(Cl)ncnc2n1CCN1CCCCC1 [NUCC-0226679]
- GI50 [1]: 15.1 µM
- IC50 [1]: 28.2 µM
- IC (TGI) [1]: 30.9 µM
- CC50 [1]: 64.6 µM
- GI50 [2]: 4.07 µM
- IC50 [2]: 8.32 µM
- IC (TGI) [2]: 14.5 µM
- CC50 [2]: 40.7 µM
- GI50 [3]: 10.5 µM
- IC50 [3]: 22.9 µM
- IC (TGI) [3]: 22.4 µM
- CC50 [3]: 47.9 µM
- GI50 [4]: 52.5 µM
- IC50 [4]: 100 µM
- IC (TGI) [4]: 100 µM
- CC50 [4]: ≥ 100 µM
- GI50 [5]: 18.2 µM
- IC50 [5]: 26.3 µM
- IC (TGI) [5]: 50.1 µM
- CC50 [5]: ≥ 100 µM
- GI50 [6]: 3.16 µM
- IC50 [6]: 4.17 µM
- IC (TGI) [6]: 12.9 µM
- CC50 [6]: 55 µM
- GI50 [7]: 25.1 µM
- IC50 [7]: 47.9 µM
- IC (TGI) [7]: 100 µM
- CC50 [7]: ≥ 100 µM
- GI50 [8]: 17 µM
- IC50 [8]: 31.6 µM
- IC (TGI) [8]: 36.3 µM
- CC50 [8]: 75.9 µM
- GI50 [9]: 11.7 µM
- IC50 [9]: 25.1 µM
- IC (TGI) [9]: 30.2 µM
- CC50 [9]: 77.6 µM
- GI50 [10]: 20.9 µM
- IC50 [10]: 29.5 µM
- IC (TGI) [10]: 81.3 µM
- CC50 [10]: ≥ 100 µM
- GI50 [11]: 1.74 µM
- IC50 [11]: 3.31 µM
- IC (TGI) [11]: 3.55 µM
- CC50 [11]: 7.41 µM
- GI50 [12]: 24 µM
- IC50 [12]: 42.7 µM
- IC (TGI) [12]: 64.6 µM
- CC50 [12]: ≥ 100 µM
- GI50 [13]: 16.2 µM
- IC50 [13]: 30.9 µM
- IC (TGI) [13]: 38.9 µM
- CC50 [13]: 93.3 µM
- GI50 [14]: 38 µM
- IC50 [14]: 100 µM
- IC (TGI) [14]: 100 µM
- CC50 [14]: ≥ 100 µM
